Data on nine compounds can be found in ChEMBL document CHEMBL1201862, “PubChem BioAssay data set” (2004).

Holding throughout (experiment): inhibition of tumour cell growth, NCI panel, 48 h
In test [1] the test system is SK-MEL-5.
Test [2] concerns M14.
Test [3] relates to SK-MEL-2.
Test [4] concerns A549.
Test [5] concerns NCI-H23.
Test [6] concerns IGROV-1.
The test system of test [7] is A498.
The subject of test [8] is SF-268.
Test [9] relates to COLO 205.
Test [10] deals with SR.
The test system of test [11] is UACC-62.
Test [12] concerns ACHN.
The subject of test [13] is CAKI-1.
The subject of test [14] is KM12.
The test system of test [15] is MDA-MB-435.
The test system of test [16] is CCRF-CEM.
The subject of test [17] is MDA-N.
Test [18] concerns HCT-116.
Test [19] concerns SF-539.
Test [20] concerns U-251.

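A five-concentration, 48-hour dose response in 96-well plates underlies each endpoint, interpolated linearly between surrounding concentrations. At the GI50, growth is halved.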 The source made the active and inactive calls. Cut-off read from the data, not from the text of the source: active = GI50 up to about 1.1 µM and inactive = higher.

For the compound `COC(=O)[C@@H]1O[C@]12C(CO[Si](C)(C)C(C)(C)C)OC(n1ccc(=O)[nH]c1=O)C2O[Si](C)(C)C(C)(C)C` (stereo not given in full), the GI50 in test [1] is 19.6 µM (inactive); in test [2], 15.3 µM (inactive); in test [3], 17.4 µM (inactive); in test [4] it was 32.7 µM (inactive); in test [5] it was 19.8 µM (inactive); in [6], 17.7 µM (inactive). The GI50 in [7] is > 10 µM (inactive); in [8] it was 30.4 µM (inactive); in [9], 24.1 µM (inactive); in [10] it was > 10 µM (inactive); in test [11] it was 24.2 µM (inactive); in test [12], 22 µM (inactive). The GI50 in test [13] was 19.7 µM (inactive); in test [14], 31.7 µM (inactive); in test [15], 23.6 µM (inactive); in test [16] it was > 100 µM (inactive); in [17], 33.1 µM (inactive); in [18] it was 23.3 µM (inactive). Besides, the values for the GI50 in [19] and in test [20] were 19.7 µM (inactive) and 26.2 µM (inactive), respectively.
`O=C1N/C(=N/N=C\C(O)C(O)C(O)C(O)CO)N/C1=C\c1ccc(Cl)cc1` (stereo not given): the GI50 in test [1] is 17 µM (inactive); in test [2] it was 3.1 µM (inactive); in test [3] it was 7.06 µM (inactive); in [4], 27.2 µM (inactive); in test [5], 5.32 µM (inactive); in test [6], 12.4 µM (inactive). Besides, the GI50 in test [7] is 11.5 µM (inactive); in test [8], 3.61 µM (inactive); in test [9], 8 µM (inactive); in [10], 4.04 µM (inactive); in test [11], 0.571 µM (active); in test [12], 21.9 µM (inactive). Moreover, the GI50 in test [13] is > 57.7 µM (inactive); in [14], 22.1 µM (inactive); in [15] it was 7.14 µM (inactive); in [16] it was 4.89 µM (inactive); in test [17] it was 0.968 µM (active); in test [18] it was 9.59 µM (inactive). The GI50 in [19] is 0.332 µM (active); in test [20] it was 2.15 µM (inactive).
Regarding `C=C1C(=O)OC2/C=C(\CO)C3OC3C3OC3(C)CC(OC(=O)/C(=C/C)COC(C)=O)C12` (stereo not given), the GI50 is 8.13 µM (inactive) in [1]; 2.75 µM (inactive) in test [2]; 3.31 µM (inactive) in test [3]; 18.6 µM (inactive) in test [4]; 6.93 µM (inactive) in test [5]; 13.2 µM (inactive) in [6]. Further, the GI50 in [7] is 13.8 µM (inactive); in test [8], 11.2 µM (inactive); in [9], 1.63 µM (inactive); in test [10], 2.09 µM (inactive); in test [11], 2.86 µM (inactive); in test [12], 3.4 µM (inactive). For the same compound, the GI50 was 1.95 µM (inactive) in test [13]; 7.31 µM (inactive) in test [14]; 2.59 µM (inactive) in test [15]; 2.29 µM (inactive) in [16]; 3.58 µM (inactive) in [17]; 1.55 µM (inactive) in test [18]. For the same compound, the GI50 in [19] was 2.91 µM (inactive); in test [20] it was 5 µM (inactive).
`S=c1sc2nc(Cl)nc(Cl)c2s1`: the GI50 is 8.73 µM (inactive) in test [1]; 4.16 µM (inactive) in test [2]; 11.4 µM (inactive) in test [3]; 19 µM (inactive) in test [4]; 16.9 µM (inactive) in [5]; 13.8 µM (inactive) in [6]. Besides, the GI50 in test [7] was 18 µM (inactive); in test [8] it was 14.8 µM (inactive); in test [9] it was 7.18 µM (inactive); in [10], 1.04 µM (active); in test [11], 13 µM (inactive); in test [12], 13.9 µM (inactive). The GI50 was 7.52 µM (inactive) in [13]; 7.85 µM (inactive) in test [14]; 7.94 µM (inactive) in [15]; 0.598 µM (active) in [16]; 7.98 µM (inactive) in test [17]; 11.9 µM (inactive) in test [18]. In addition, the GI50 in [19] was 20.6 µM (inactive); in test [20], 7.8 µM (inactive).
On to `C[n+]1c(Cl)cn2c3nc4ccccc4nc3c([O-])c(C#N)c21`, for which the GI50 in test [1] is > 4.65 µM (inactive); in [2], > 100 µM (inactive); in test [3], > 4.65 µM (inactive); in test [4], > 100 µM (inactive); in test [5], > 100 µM (inactive); in [6], > 100 µM (inactive). For the same compound, the GI50 is > 62.7 µM (inactive) in [7]; > 81.3 µM (inactive) in test [8]; > 100 µM (inactive) in [9]; > 74.8 µM (inactive) in test [10]; > 92.7 µM (inactive) in test [11]; 99.1 µM (inactive) in test [12]. In addition, the GI50 in [13] is > 100 µM (inactive); in test [14], > 10 µM (inactive); in test [15] it was > 100 µM (inactive); in [16], 77.3 µM (inactive); in test [17] it was > 100 µM (inactive); in test [18] it was > 100 µM (inactive). Besides, the GI50 was 9.31 µM (inactive) in test [19] and > 100 µM (inactive) in test [20].
For `Oc1ncc(Cl)c(O)n1`, the GI50 in test [1], in test [2], in test [3], in [4], in [5] and in test [6] was > 100 µM (inactive) in each case. Further, the GI50 in [7], in test [8], in [9], in test [10], in [11] and in test [12] was > 100 µM (inactive) each time. Further, the GI50 in [13], in test [14], in test [15], in test [16], in [17] and in test [18] was > 100 µM (inactive) throughout. The GI50 in [19] and in test [20] was > 100 µM (inactive) in each case.
Turning to `CC1=C(C(N)=O)C(c2ccncc2)C(C#N)=C2SCC(=O)N12` (stereo not given), the GI50 in test [1], in test [2], in [3], in [4], in test [5] and in test [6] was > 100 µM (inactive) throughout. The GI50 in [7], in [8], in [9], in test [10], in test [11] and in test [12] was > 100 µM (inactive) throughout. For the same compound, the GI50 in test [13], in test [14], in test [15], in test [16], in test [17] and in [18] was > 100 µM (inactive) throughout. Further, the GI50 in [19] and in [20] was > 100 µM (inactive) each time.
For `O=C(N/N=C/c1ccc2c(c1)OCO2)Nc1ccccc1Cl`, the GI50 in test [1] is 1.35 µM (inactive); in test [2] it was 0.671 µM (active); in test [3] it was 0.556 µM (active); in test [4], 3.33 µM (inactive); in test [5] it was 1.66 µM (inactive); in test [6] it was 0.622 µM (active). The GI50 in [7] is 1.95 µM (inactive); in [8] it was 3.76 µM (inactive); in test [9], 0.957 µM (active); in test [10] it was 0.22 µM (active); in test [11], 0.762 µM (active); in test [12], 7.43 µM (inactive). For the same compound, the GI50 in test [13] is 4.18 µM (inactive); in [14], 0.598 µM (active); in test [15], 0.171 µM (active); in [16] it was 1.13 µM (inactive); in [17], 0.161 µM (active); in test [18] it was 0.861 µM (active). The results for the GI50 in test [19] and in test [20] were 0.918 µM (active) and 2.68 µM (inactive), respectively.
As to `CSc1nncc2[nH]cnc12`, the GI50 in test [1], in test [2], in test [3], in [4], in test [5] and in [6] was > 100 µM (inactive) throughout. Moreover, the GI50 in [7], in test [8], in test [9], in test [10], in test [11] and in test [12] was > 100 µM (inactive) in each case. For the same compound, the GI50 in test [13], in [14], in test [15], in [16], in test [17] and in [18] was > 100 µM (inactive) in each case. The GI50 in test [19] and in [20] was > 100 µM (inactive) in each case.
